Among the data in ChEMBL document CHEMBL1152560, “Substituted 2-arylbenzothiazoles as kinase inhibitors: hit-to-lead optimization” (Bioorg Med Chem, 2009) are residual activity values, retold here.

For assay [1], the target named is T1, Serine/threonine-protein kinase NLK (Homo sapiens) (UniProt Q9UBE8).
T1 sequence (whole entry): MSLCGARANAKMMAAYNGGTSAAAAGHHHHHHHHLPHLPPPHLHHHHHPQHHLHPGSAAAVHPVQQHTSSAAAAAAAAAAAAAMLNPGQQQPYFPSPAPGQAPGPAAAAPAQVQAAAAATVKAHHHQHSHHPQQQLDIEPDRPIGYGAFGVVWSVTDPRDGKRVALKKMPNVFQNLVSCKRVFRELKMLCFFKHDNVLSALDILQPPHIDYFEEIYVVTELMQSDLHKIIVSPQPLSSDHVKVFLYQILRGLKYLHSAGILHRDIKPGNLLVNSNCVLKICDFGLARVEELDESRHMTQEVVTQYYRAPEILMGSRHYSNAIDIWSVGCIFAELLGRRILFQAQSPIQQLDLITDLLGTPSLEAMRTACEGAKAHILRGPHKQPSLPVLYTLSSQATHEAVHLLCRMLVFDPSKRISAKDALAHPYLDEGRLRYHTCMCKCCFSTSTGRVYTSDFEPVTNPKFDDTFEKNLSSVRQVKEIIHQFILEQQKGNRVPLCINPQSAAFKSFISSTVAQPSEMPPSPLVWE
The assay can be described thus: Residual activity of NLK at 0.1 uM by microplate scintillation counting.

For assay [2], the target named is Fibroblast growth factor receptor 3 (Homo sapiens) (UniProt P22607). The assay can be described thus: Residual activity of FGFR3 at 10 uM by microplate scintillation counting.
In assay [3] the target is Fibroblast growth factor receptor 4 (Homo sapiens) (UniProt P22455). The assay can be described thus: Residual activity of FGFR4 at 1 uM by microplate scintillation counting.
In assay [4] the target is Cyclin-dependent kinase 16 (Homo sapiens) (UniProt Q00536). Put plainly: Residual activity of PCTAIRE1 at 0.1 uM by microplate scintillation counting.
In assay [5] the target is Tyrosine-protein kinase Fyn (Homo sapiens) (UniProt P06241). Put plainly: Residual activity of FYN at 1 uM by microplate scintillation counting.
For assay [6], the target named is SRSF protein kinase 2 (Homo sapiens) (UniProt P78362). The assay can be described thus: Residual activity of SRPK2 at 1 uM by microplate scintillation counting.
Assay [7] deals with Insulin receptor-related protein (Homo sapiens) (UniProt P14616). Put plainly: Residual activity of INSRR at 0.1 uM by microplate scintillation counting.
Insulin receptor-related protein (Homo sapiens), sequence (P14616 27-742 limits assumed): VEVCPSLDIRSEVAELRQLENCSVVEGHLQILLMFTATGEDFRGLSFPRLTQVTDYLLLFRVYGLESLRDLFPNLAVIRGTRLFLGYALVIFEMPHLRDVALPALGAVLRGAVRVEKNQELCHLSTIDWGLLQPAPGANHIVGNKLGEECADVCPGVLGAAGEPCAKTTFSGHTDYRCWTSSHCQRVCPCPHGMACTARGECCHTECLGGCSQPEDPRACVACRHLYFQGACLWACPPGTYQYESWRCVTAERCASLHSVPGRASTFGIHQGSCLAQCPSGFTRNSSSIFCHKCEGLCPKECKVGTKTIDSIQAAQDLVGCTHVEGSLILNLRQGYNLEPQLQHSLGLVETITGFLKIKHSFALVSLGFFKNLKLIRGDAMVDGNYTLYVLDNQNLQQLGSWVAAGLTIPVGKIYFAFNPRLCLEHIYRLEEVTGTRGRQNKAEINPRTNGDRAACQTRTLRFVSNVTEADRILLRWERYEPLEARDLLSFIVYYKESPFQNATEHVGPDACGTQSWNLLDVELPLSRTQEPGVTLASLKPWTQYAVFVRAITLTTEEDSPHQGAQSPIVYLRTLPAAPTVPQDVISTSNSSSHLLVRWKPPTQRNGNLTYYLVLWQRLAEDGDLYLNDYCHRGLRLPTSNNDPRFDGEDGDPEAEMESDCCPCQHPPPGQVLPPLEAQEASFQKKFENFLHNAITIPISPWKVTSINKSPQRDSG
Insulin receptor-related protein (Homo sapiens), sequence (P14616 747-1297 limits assumed): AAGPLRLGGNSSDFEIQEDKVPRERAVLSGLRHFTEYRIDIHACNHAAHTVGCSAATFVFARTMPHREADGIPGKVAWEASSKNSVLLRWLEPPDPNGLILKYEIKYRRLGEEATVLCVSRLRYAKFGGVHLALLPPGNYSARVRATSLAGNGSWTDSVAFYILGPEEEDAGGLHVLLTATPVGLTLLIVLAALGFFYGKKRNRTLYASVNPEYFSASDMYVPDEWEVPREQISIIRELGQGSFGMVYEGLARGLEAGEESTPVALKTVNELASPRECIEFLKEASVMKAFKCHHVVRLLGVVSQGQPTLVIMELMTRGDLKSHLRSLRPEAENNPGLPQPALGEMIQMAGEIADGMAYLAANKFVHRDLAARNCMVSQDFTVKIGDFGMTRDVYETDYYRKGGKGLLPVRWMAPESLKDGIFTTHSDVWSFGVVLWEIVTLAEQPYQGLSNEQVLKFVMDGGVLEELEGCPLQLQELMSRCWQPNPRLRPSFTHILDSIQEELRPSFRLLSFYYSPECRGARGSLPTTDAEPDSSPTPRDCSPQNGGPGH
Assay [8] addresses Fibroblast growth factor receptor 2 (Homo sapiens) (UniProt P21802). The assay can be described thus: Residual activity of FGFR2 at 1 uM by microplate scintillation counting.
Assay [9] addresses Homeodomain-interacting protein kinase 3 (Homo sapiens) (UniProt Q9H422). The assay can be described thus: Residual activity of HIPK3 at 0.1 uM by microplate scintillation counting.
Assay [10] addresses Vascular endothelial growth factor receptor 1 (Homo sapiens) (UniProt P17948). The assay can be described thus: Residual activity of VEGFR1 at 1 uM by microplate scintillation counting.
In assay [11] the target is T2, Tyrosine-protein kinase receptor TYRO3 (Homo sapiens) (UniProt Q06418).
T2 sequence (whole entry): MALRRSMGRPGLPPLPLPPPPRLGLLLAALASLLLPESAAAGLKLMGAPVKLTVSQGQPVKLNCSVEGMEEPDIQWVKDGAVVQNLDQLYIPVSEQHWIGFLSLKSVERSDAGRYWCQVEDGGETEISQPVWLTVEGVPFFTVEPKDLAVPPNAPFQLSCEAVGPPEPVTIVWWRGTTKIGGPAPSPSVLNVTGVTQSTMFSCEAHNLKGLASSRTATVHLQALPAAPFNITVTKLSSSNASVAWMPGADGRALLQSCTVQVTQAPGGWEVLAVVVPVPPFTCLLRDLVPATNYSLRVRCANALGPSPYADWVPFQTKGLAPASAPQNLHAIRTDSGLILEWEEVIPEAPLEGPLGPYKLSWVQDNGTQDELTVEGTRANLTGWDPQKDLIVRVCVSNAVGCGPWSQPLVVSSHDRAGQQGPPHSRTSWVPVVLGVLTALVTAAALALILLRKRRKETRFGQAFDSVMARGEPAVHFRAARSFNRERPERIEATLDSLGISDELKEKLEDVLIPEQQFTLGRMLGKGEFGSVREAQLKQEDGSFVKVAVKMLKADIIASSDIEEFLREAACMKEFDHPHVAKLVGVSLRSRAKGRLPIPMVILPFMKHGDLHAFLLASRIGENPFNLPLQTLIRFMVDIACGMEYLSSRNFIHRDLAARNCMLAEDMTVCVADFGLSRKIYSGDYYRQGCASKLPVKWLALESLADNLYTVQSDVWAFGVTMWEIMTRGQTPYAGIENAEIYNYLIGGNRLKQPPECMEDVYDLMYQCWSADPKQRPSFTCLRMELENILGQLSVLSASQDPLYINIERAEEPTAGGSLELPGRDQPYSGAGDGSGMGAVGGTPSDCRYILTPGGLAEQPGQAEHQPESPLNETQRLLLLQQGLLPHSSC
Put plainly: Residual activity of TYRO3 at 0.1 uM by microplate scintillation counting.

Assay [12] deals with T3, NUAK family SNF1-like kinase 1 (Homo sapiens) (UniProt O60285).
T3 sequence (whole entry): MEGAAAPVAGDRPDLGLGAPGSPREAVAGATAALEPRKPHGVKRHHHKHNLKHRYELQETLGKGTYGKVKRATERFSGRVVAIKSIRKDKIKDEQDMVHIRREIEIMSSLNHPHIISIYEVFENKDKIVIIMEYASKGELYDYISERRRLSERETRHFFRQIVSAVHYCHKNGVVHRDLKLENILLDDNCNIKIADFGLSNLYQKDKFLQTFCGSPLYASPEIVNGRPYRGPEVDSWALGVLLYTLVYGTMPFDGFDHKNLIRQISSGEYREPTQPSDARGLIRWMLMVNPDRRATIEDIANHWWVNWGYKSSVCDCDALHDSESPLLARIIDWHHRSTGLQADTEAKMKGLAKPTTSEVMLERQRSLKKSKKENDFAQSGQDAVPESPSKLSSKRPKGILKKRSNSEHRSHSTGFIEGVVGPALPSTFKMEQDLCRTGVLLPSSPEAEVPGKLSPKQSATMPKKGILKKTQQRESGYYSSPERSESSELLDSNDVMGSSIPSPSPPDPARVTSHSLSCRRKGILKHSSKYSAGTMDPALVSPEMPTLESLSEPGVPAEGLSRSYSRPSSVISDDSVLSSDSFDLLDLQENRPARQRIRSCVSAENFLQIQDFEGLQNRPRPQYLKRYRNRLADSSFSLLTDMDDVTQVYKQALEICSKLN
Put plainly: Residual activity of ARK5 at 0.1 uM by microplate scintillation counting.

For assay [13], the target named is Protein-tyrosine kinase 2-beta (Homo sapiens) (UniProt Q14289). The assay can be described thus: Residual activity of PYK2 at 10 uM by microplate scintillation counting.
The target in assay [14] is Cyclin-dependent kinase 7/ cyclin H (Homo sapiens) (UniProt P51946+P50613). Put plainly: Residual activity of CDK7/CyclinH/MAT1 at 10 uM by microplate scintillation counting. It counts as protein-complex assay.

Fibroblast growth factor receptor 2 (Homo sapiens), sequence (P21802 22-821 limits assumed): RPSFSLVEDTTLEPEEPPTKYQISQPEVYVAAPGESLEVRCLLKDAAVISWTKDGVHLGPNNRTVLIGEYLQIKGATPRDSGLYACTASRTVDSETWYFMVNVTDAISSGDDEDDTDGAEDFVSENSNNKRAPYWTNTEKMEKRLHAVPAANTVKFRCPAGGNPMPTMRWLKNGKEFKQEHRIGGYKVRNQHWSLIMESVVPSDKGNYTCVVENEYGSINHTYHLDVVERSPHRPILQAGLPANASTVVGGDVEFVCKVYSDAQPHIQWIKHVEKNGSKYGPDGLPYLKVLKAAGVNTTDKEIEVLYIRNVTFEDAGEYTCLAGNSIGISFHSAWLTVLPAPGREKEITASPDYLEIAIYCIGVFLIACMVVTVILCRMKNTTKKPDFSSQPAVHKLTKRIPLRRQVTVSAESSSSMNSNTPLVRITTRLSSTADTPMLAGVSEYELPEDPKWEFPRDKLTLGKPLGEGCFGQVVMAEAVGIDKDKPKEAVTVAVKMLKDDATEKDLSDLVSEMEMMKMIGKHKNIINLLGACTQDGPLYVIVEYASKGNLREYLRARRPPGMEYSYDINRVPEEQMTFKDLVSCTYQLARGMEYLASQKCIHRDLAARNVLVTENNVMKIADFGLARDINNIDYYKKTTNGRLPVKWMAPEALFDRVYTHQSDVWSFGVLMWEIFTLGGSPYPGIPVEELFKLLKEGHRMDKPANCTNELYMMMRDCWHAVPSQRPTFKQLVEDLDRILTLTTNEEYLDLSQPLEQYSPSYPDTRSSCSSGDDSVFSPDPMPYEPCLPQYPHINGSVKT
Homeodomain-interacting protein kinase 3 (Homo sapiens), sequence (Q9H422 whole entry, looked up): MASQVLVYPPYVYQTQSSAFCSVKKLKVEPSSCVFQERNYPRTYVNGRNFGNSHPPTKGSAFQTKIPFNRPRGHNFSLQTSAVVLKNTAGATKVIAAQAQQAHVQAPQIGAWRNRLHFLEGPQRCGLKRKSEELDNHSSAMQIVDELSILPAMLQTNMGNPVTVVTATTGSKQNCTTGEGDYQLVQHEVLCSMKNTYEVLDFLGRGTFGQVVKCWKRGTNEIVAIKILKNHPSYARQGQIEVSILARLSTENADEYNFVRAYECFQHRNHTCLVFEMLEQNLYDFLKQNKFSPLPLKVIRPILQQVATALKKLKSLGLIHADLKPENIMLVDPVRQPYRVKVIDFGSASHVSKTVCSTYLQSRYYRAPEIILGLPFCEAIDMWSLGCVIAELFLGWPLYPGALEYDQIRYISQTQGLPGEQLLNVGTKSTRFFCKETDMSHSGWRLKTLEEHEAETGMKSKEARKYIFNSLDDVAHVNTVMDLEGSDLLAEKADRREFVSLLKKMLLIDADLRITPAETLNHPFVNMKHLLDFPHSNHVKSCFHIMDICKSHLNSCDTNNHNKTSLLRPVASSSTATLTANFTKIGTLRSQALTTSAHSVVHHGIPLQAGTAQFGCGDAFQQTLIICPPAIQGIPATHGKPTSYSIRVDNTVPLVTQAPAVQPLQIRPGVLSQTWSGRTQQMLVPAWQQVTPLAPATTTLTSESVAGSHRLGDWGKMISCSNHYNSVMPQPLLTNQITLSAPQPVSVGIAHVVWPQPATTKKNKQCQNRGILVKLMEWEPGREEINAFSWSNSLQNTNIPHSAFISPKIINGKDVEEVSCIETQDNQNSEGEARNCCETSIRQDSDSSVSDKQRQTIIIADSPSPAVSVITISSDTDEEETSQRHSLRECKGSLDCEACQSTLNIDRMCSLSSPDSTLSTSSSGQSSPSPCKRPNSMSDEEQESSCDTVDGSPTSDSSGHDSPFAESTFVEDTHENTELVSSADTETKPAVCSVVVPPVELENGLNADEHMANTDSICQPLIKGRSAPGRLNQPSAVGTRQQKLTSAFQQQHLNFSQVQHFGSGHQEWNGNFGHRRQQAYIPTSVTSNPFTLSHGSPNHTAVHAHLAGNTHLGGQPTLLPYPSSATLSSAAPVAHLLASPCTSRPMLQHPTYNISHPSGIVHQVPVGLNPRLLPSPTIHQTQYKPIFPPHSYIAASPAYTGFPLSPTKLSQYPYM
Vascular endothelial growth factor receptor 1 (Homo sapiens), sequence (P17948 whole entry): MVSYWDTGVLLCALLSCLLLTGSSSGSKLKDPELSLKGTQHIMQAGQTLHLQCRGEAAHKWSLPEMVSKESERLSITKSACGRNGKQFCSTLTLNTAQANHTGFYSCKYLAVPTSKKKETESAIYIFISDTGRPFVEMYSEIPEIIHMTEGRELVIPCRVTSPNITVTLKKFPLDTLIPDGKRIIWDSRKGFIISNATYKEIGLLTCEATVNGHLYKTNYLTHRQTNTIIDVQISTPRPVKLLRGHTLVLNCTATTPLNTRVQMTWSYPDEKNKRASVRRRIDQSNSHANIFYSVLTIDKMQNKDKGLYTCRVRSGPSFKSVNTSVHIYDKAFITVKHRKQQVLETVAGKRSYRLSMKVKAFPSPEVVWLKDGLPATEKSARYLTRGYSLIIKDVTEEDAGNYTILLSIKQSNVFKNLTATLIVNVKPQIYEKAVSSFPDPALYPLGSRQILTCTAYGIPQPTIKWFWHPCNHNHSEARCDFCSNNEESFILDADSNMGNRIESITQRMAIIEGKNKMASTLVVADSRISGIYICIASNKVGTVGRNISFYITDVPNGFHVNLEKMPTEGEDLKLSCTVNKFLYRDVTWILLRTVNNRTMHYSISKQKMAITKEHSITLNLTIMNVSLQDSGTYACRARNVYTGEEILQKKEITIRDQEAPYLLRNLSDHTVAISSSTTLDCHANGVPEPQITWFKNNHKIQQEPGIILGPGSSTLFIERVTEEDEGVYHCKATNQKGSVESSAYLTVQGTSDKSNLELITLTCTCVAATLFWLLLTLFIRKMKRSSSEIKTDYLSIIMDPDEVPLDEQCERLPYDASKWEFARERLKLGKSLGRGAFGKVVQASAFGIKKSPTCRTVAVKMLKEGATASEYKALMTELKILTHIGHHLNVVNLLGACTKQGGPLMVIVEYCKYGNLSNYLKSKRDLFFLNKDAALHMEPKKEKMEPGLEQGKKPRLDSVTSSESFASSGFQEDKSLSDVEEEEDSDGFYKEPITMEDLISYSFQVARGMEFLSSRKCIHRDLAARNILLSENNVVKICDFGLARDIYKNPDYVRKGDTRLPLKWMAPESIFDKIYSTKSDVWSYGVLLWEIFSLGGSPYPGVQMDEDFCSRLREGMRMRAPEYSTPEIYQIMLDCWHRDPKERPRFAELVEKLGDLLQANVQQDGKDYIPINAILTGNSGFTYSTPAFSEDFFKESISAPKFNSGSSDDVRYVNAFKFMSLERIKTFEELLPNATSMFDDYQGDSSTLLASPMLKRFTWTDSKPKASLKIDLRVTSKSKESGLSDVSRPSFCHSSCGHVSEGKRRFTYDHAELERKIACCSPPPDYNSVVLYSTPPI

Turning to `COc1cc2c(Oc3ccc(-c4nc5ccccc5s4)cc3)ncnc2cc1OCCCN1CCCC1`, the residual activity (usually the signal under treatment as a percentage of the control signal) came to 90% in [1]; 169% in [2]; 137% in assay [3]; 83% in [4]; 106% in [5]; 97% in [6]. In addition, the residual activity in [7] came to 97%; in assay [8] it was 107%; in assay [9], 92%; in assay [10], 74%; in [11], 106%; in [12] it was 83%. Also, the residual activity in [13] turned out to be 113%; in assay [14], 116%.

As for `COc1cc2c(Oc3ccc(-c4nc5ccccc5s4)cc3F)ncnc2cc1OCCCN1CCN(C)CC1`, the residual activity in [1] was 91%; in assay [2], 46%; in assay [3], 130%; in assay [4] it was 76%; in assay [5] it was 106%; in assay [6] it was 107%. Besides, the residual activity is 116% in assay [7]; 120% in assay [8]; 93% in [9]; 74% in assay [10]; 115% in [11]; 94% in assay [12]. In addition, the residual activity in [13] was determined as 54%; in assay [14] it was 138%.

In the case of `COc1cc2c(Oc3ccc(-c4nc5ccccc5s4)cc3)ncnc2cc1OCCCN1CCN(C)CC1`, the residual activity in [1] turned out to be 94%; in assay [2], 171%; in assay [3] it was 121%; in assay [4], 78%; in assay [5] it was 105%; in assay [6] it was 115%. For the same compound, the residual activity was 96% in [7]; 111% in assay [8]; 88% in [9]; 75% in assay [10]; 120% in [11]; 98% in assay [12]. Further, the figures for the residual activity in assay [13] and in assay [14] were 95% and 130%, respectively.
